Biological target: Integrin alpha-IIb/beta-3 (Homo sapiens, UniProt P05106+P08514)
Assay: Inhibition of platelet aggregation in vitro using fibrinogen binding assay

Integrin alpha-IIb/beta-3, sequence (P05106 27-788 limits assumed): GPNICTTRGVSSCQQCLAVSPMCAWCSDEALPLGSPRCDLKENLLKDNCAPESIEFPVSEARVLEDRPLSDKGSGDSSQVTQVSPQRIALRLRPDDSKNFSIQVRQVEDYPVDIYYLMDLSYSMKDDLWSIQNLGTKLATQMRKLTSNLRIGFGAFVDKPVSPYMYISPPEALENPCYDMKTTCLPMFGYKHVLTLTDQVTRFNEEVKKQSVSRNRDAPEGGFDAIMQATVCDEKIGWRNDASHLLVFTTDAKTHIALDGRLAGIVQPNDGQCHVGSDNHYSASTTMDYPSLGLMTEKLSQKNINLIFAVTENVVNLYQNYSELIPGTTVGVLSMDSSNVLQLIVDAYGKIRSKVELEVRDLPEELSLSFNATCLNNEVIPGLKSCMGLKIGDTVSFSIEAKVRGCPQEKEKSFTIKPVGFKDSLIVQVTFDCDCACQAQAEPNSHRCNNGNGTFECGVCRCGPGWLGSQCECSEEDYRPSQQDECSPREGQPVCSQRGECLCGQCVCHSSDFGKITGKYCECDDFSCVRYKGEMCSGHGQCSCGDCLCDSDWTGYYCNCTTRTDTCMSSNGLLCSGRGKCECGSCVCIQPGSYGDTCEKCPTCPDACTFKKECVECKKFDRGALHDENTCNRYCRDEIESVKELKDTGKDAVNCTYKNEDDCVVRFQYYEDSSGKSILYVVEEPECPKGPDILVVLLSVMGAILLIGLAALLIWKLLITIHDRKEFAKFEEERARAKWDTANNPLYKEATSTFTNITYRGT
Integrin alpha-IIb/beta-3, sequence (P08514 32-887 limits assumed): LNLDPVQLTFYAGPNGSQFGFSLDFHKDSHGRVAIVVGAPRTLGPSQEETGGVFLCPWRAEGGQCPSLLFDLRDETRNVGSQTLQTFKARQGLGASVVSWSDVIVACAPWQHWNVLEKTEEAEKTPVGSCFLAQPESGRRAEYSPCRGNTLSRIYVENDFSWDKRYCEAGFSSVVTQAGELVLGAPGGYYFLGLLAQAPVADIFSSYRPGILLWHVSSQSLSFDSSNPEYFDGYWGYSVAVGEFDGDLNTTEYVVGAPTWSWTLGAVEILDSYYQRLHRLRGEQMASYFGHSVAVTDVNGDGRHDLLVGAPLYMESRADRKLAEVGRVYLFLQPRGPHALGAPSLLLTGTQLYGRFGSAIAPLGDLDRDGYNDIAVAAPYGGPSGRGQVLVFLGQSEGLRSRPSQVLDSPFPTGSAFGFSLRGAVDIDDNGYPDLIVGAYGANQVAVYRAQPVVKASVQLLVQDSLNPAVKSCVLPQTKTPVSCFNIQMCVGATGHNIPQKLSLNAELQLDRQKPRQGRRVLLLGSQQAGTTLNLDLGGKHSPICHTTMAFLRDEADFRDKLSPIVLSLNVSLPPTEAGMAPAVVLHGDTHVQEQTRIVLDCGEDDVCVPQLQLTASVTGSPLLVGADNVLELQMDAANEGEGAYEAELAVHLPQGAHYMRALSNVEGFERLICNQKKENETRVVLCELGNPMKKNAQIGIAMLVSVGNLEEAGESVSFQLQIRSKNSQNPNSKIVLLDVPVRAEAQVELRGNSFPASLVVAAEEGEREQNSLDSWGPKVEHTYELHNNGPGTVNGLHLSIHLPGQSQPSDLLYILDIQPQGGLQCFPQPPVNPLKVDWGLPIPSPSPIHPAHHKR
Integrin alpha-IIb/beta-3, sequence (P08514 891-1039 limits assumed): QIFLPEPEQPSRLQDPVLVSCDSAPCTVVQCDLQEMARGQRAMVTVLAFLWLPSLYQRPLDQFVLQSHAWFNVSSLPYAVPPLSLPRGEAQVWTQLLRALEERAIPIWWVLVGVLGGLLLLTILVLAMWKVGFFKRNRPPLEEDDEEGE

IC50: 4 nM
Structure (SMILES): CC(C)[C@H]1NC(=O)c2cccc(c2F)CNC(=O)[C@H](CC(=O)O)NC(=O)CNC(=O)[C@H](CCCN=C(N)N)N(C)C1=O

Source: ChEMBL document CHEMBL1128818, “Synthesis and antiplatelet activity of DMP 757 analogs” (Bioorg Med Chem Lett, 1995)
